Experimental data: paper PMC9184620, “TAS1553, a small molecule subunit interaction inhibitor of ribonucleotide reductase, exhibits antitumor activity by causing DNA replication stress” (Communications Biology, 2022)

What was measured:
HCC38 cells = test: Cell proliferation assay (CellTiter-Glo), HCC38; format: cell-based; conditions: Homo sapiens, 72 h; HCC38, 3 days exposure
Experimental: Next, we evaluated both concentration-dependent and time-dependent effects of TAS1553 on the dATP pool in HCC38 and MV-4-11 cell lines using absolute quantification. After 2 h of TAS1553 exposure, there was a concentration-dependent reduction of intracellular dATP pool in both cell lines (Fig. 2c). Furthermore, the intracellular dATP pool was reduced within 30 minutes when treated with TAS1553 at 1 or 10 µmol/L in both cell lines (Fig. 2d), consistent with its inhibitory effect on the protein-protein interaction (Fig. 2a).
Cell proliferation assay was performed as reported previously. Briefly, cells were plated and incubated for 1 day, followed by 3 days of exposure to the compound. After compound exposure, viable cells were detected by using the CellTiter-Glo luminescent cell viability assay (Promega). GI50 values were calculated using the SAS software package. The experiment was performed in triplicates.

MV-4-11 xenograft = test: Antitumor activity in rats bearing MV-4-11 xenografts; format: in vivo
Experimental: Next, we evaluated the antitumor activity of a high-dose administration of TAS1553 and cytarabine in rats bearing MV-4-11 xenografts. […] The rats were treated with cytarabine for 5 days at 16 and 32 mg/kg. […] In addition to the hematologic tumor, we evaluated the antitumor activity of TAS1553 in mice implanted with HCC38 cell line as a solid tumor model. […] Finally, TAS1553 was evaluated for its survival benefit in a mouse model. To achieve this, we established mice bone marrow cells harboring the human MLL-AF9 fusion gene, which is known as a driver gene for AML in humans as well as mice[48].
For the subcutaneous implantation model of MV-4-11, F344/NJcl-rnu/rnu rats were irradiated with X-ray (4 Gy) to improve the efficiency of xenograft implantation. Two days after X-ray irradiation, MV-4-11 cells suspended in PBS with 50 vol% Matrigel were inoculated into the rats (2 × 10^7 cells/animal). In the mice subcutaneous implantation model, HCC38 cells suspended same as above were inoculated into male BALB/cAJcl-nu/nu mice (1 × 10^7 cells /body). […] Antitumor activity and body weight change were evaluated as previously reported. Dunnett test using the SAS software package in EXSUS (CAC Croit) was used to compare the tumor volume (P < 0.05).

[1] = target: T1, interaction between R1 and R2 (human RNR) (Homo sapiens, UniProt P23921); test: AlphaLISA binding assay (interaction between His-R1 and GST-R2); conditions: recombinant R1 and R2; mean ± SD
T1 construct: host or cells: Escherichia coli (His-R1)
T1 sequence (P23921 1-792): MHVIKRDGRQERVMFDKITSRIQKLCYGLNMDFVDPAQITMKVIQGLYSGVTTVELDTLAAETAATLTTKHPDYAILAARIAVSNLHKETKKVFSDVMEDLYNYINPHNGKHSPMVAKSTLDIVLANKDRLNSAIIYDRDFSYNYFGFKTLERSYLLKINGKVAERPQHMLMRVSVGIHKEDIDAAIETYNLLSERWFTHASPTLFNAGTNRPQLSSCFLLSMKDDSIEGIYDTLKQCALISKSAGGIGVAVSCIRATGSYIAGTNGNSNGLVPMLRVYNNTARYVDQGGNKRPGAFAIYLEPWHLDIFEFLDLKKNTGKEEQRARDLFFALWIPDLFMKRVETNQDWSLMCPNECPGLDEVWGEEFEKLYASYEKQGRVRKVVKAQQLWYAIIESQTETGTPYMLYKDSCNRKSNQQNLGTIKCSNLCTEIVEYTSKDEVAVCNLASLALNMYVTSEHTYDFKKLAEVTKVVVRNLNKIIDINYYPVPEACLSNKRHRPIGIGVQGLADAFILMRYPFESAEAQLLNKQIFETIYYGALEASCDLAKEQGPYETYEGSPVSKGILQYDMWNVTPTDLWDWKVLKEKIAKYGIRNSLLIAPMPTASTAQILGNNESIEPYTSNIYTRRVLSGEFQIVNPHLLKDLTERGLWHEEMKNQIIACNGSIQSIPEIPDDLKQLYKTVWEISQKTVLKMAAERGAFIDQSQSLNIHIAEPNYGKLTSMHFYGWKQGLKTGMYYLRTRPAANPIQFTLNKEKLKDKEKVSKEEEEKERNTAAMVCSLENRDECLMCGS

[2] = 400 mg/kg oral once daily for 14 days

**Q.** Which GI50 (HCC38 cells) does the source give for `Cc1ccc(F)c([C@@H](C)[C@H](NS(=O)(=O)c2ccc(Cl)cc2C(N)=O)c2n[nH]c(=O)o2)c1C` [TAS1553, 5-chloro-2-{N-[(1S,2R)-2-(6-fluoro-2,3-dimethylphenyl)-1-(5-oxo-4,5-dihydro-1,3,4-oxadiazol-2-yl)propyl]sulfamoyl}benzamide] here?
**A.** The GI50 was 0.352 µM.

**Q.** And the “T/C (mean tumor volume treated/control) on Day 15” value (MV-4-11 xenograft; 50 mg/kg oral once daily for 14 days)?
**A.** Its value is 52.0%.

**Q.** What about the “T/C (mean tumor volume treated/control) on Day 15” value (MV-4-11 xenograft; 100 mg/kg oral once daily for 14 days) of the same molecule?
**A.** Its value is 45.0%.

**Q.** And the “T/C (mean tumor volume treated/control) on Day 15” value (MV-4-11 xenograft; 200 mg/kg oral once daily for 14 days)?
**A.** Its value is 29.4%.

**Q.** What about the body weight change (MV-4-11 xenograft; [2]) of the same molecule?
**A.** Its body weight change is “without a reduction in body weight”.

**Q.** What about the tumor growth outcome (MV-4-11 xenograft; [2]) of the same molecule?
**A.** Its tumor growth outcome is “tumor disappearance in all the treated animals”.

**Q.** And the body weight change (MV-4-11 xenograft; 50, 100, 200 mg/kg oral once daily for 14 days)?
**A.** Its body weight change is “none of the groups showed any dramatic weight loss”.

**Q.** What about the IC50 [1] of the same molecule?
**A.** Its IC50 is 0.0396 ± 0.0042 µM.
